Positions of bridges follow the written chain, without caps; N, C: chain ends. Non-standard residues stand in square brackets, D forms with d. Residues, ends and D or L forms follow the SMILES beside them. *: point of attachment. X1 = CC[C@H](C)CCCCC(=O)*; Dab = NCC[C@H](N)C(=O)O
Key:
[1] = critically ill patients; weight-based regimen 1.25-1.5 mg/kg every 12 h; cited from earlier work
Description: At present, weight-based dosing regimen (1.25–1.5 mg/kg every 12 h) is recommended for polymyxin B [17, 18]. However, polymyxin B concentration varies widely in critically ill patients with this regimen, and almost 30% patients cannot achieve AUCss,24 h values within the target therapeutic window. […] Due to these inconsistent results, further research is needed to improve the charac ...

CRO nosocomial pneumonia [2] = experiment: 30-day all-cause mortality in CRO nosocomial pneumonia; type: in vivo, human; settings: Cox regression, p = 0.001
Description: This prospective study was conducted at two intensive care units (ICU) between January 2020 and December 2021 in the Second Xiangya Hospital of Central South University (Changsha, China). […] The exclusion criteria were as follows: (a) concomitant lung cancer with obstructive pneumonitis or cystic fibrosis; (b) solid organ transplantation; (c) hematologic malignancies and hematopoietic cell transplant recipients; (d) receiving renal replacement therapy. HAP was defined according to the 2016 clinical practice guidelines of the Infectious Diseases Society of America and the American Thoracic Society. Determination of carbapenem susceptibility of CRO was followed by the European Committee on Antimicrobial Susceptibility Testing (EUCAST). […] Creatinine clearance (CrCL) was calculated using the Cockcroft–Gault equation. […] Assessment of clinical efficacy was conducted at the end of treatment, and 30-day mortality was recorded from the start of polymyxin B treatment. […]
Clinical outcomes were classified as clinical success (CS) and clinical failure (CF), and were assessed by two physicians. […] 30-day all-cause mortality was recorded from the start of polymyxin B treatment. […]
Statistical analysis was performed with SPSS 24.0 (SPSS, IBM Company, Chicago, IL, USA) software. […] Categorical variables are expressed as counts and percentages, and the chi-square test or Fisher’s exact test was used. […]

CRO nosocomial pneumonia [3] = experiment: PK/PD analysis for clinical efficacy in CRO nosocomial pneumonia; type: in vivo, human
Description: This prospective study was conducted at two intensive care units (ICU) between January 2020 and December 2021 in the Second Xiangya Hospital of Central South University (Changsha, China). […] The exclusion criteria were as follows: (a) concomitant lung cancer with obstructive pneumonitis or cystic fibrosis; (b) solid organ transplantation; (c) hematologic malignancies and hematopoietic cell transplant recipients; (d) receiving renal replacement therapy. HAP was defined according to the 2016 clinical practice guidelines of the Infectious Diseases Society of America and the American Thoracic Society. Determination of carbapenem susceptibility of CRO was followed by the European Committee on Antimicrobial Susceptibility Testing (EUCAST). Updated EUCAST Clinical Breakpoints of polymyxin B were sensitivity (S ≤ 2 mg/L) and drug resistance (R > 2 mg/L). The antimicrobial susceptibility testing was performed using the VITEK-2 Compact system with VITEK cards (0.5–16 mg/L for colistin) (bioMérieux, France). The following information was extracted from the electronic medical records: demographic and co-morbidity profiles, clinical and microbiological features of the infections, and the antimicrobial treatment regimens. Creatinine clearance (CrCL) was calculated using the Cockcroft–Gault equation. The endpoint was clinical efficacy and 30-day all-cause mortality. Assessment of clinical efficacy was conducted at the end of treatment, and 30-day mortality was recorded from the start of polymyxin B treatment. This prospective study was approved by the Ethics Committee of the Second Xiangya Hospital, Central South University. Informed consent was obtained from all patients or legal representatives of the patients (No. ChiCTR1900022231).
Clinical outcomes were classified as clinical success (CS) and clinical failure (CF), and were assessed by two physicians. CS was defined as a composite of survival; hemodynamic stability; body temperature < 38 °C, improved biochemistry indicators of infection; stable or improved PaO2/FiO2 ratio. Additionally, for patients with bacteremia, microbiological cure (no growth of the initial isolate in blood cultures) must be achieved by the end of the treatment. […] 30-day all-cause mortality was recorded from the start of polymyxin B treatment.
Variables potentially related to clinical efficacy and 30-day all-cause mortality were assessed, including: demographics, co-morbidities, clinical conditions, dosage regimen and concentration of polymyxin B. To develop receiver operating characteristic (ROC) curves, the PK/PD indices AUCss,24 h/MIC, Cmax,ss/MIC and Cmin,ss/MIC were used as predictors of clinical efficacy. The area under the diagnostic curve (AUCROC) was calculated to evaluate the correlation of the above parameters with clinical efficacy and 30-day all-cause mortality. Youden index of the ROC curves was calculated by "sensitivity + specificity-1", and the values corresponding to the maximum Youden index is the optimal cutoff point value of the PK/PD indices.
Statistical analysis was performed with SPSS 24.0 (SPSS, IBM Company, Chicago, IL, USA) software. Continuous variables are presented as the mean ± standard deviation (SD) if normally distributed and were compared using Student’s t tests. The median and interquartile range (IQR) are presented for abnormally distributed data, and the Mann–Whitney U test was used. Categorical variables are expressed as counts and percentages, and the chi-square test or Fisher’s exact test was used. Spearman’s rank correlation coefficient (r) was used to analyze the correlation between Cmin,ss, Cmax,ss and AUCss,24 h. Univariate analysis was performed for all variables to identify possible predictors for clinical efficacy. Variables with a p < 0.05 were entered into the multivariate logistic regression models. […]

[4] = Population PK model and plasma exposure in critically ill patients (HPLC-MS/MS, Phoenix NLME); type: in vivo, human; design: AUCss, 24h: concentration or dose not given beside the values
Description: Polymyxin B was given to all patients empirically as a loading dose of 100–200 mg followed by a maintenance dose of 40–100 mg every 12 h for at least 3 days. The infusion time was at least 1 h. Aerosol delivery of polymyxin B (25 mg or 50 mg twice daily) was using a vibrating mesh nebulizer, synchronized with the inspiratory cycle of the ventilator. Two to six blood samples (2 mL) were randomly collected immediately before the seventh dose of polymyxin B and at 0, 1, 2, 4, 6, 8 and 10 h after the end of infusion. The supernatant was immediately stored at − 80 °C until analysis.
An established high-performance liquid chromatography-tandem mass spectrometry (HPLC–MS/MS) was used to measure the concentrations of polymyxin B1 and polymyxin B2 as described previously by the authors’ laboratory (The total concentration of polymyxin B = [polymyxin B1 concentration/polymyxin B1 molecular + polymyxin B2 concentration/polymyxin B2 molecular]*total polymyxin B molecular). The interday precision was < 12%, the intraday precision was < 9%, and the accuracy ranged from 96.1 to 110.4%. The limit of quantification (LLOD) was 0.03 mg/L, and all of the polymyxin B concentrations detected were over LLOD.
The Phoenix NLME program (version 8.1. Pharsight, A Certara Company, USA) with the method of first-order conditional estimation-extended least square method (FOCE-ELS) was used to develop the population PK model by analyzing polymyxin B concentration. The objective function value (OFV), goodness-of-fit plots and the reasonable of population PK parameters were used to selection of the structure model. The stepwise covariate modeling (SCM) approach was used to test the covariate model in this analysis; age, sex, body weight, alanine aminotransferase (ALT), aspartate aminotransferase (AST), total bilirubin (TBIL), direct bilirubin (DBIL), serum albumin (ALB) and CrCL were evaluated as the covariates. The SCM consists of a forward selection step (the criterion is p < 0.05 for ΔOFV decreased ≥ 3.84) and a backward elimination step (the criterion is p < 0.001 for ΔOFV increased ≥ 10.83). In addition, the goodness-of-fit plots were used to assess the validity of the population PK model, the prediction-corrected visual predictive check (pcVPC) was used to assess the predictive performance of the key models. The bootstrap method was used to assess the accuracy.
The PK/PD indices included AUCss,24 h, AUCss,24 h/MIC, the peak and trough concentration at steady state (Cmax,ss and Cmin,ss), Cmax,ss /MIC and Cmin,ss /MIC. AUCss,24 h, Cmax,ss and Cmin,ss were calculated based on the empirical Bayesian (EBEs). For those patients with more than one baseline pathogen, AUCss,24 h/MIC, Cmax,ss /MIC and Cmin,ss /MIC evaluations were based on the pathogen with the highest MIC value.

[5] = 30-day non-survival group (n = 28), median (IQR)
[6] = 30-day survival group (n = 77), median (IQR)
[7] = clinical failure group (n = 35), median (IQR)
[8] = clinical success group (n = 70), median (IQR)
[9] = final model estimate, two-compartment population PK, 105 patients, 295 plasma concentrations
[10] = median of 105 patients, plasma, empirical Bayesian estimates

Compound: CC[C@H](C)CCCCC(=O)N[C@@H](CCN)C(=O)N[C@H](C(=O)N[C@@H](CCN)C(=O)N[C@H]1CCNC(=O)[C@H]([C@@H](C)O)NC(=O)[C@H](CCN)NC(=O)[C@H](CCN)NC(=O)[C@H](CC(C)C)NC(=O)[C@@H](Cc2ccccc2)NC(=O)[C@H](CCN)NC1=O)[C@@H](C)O [polymyxin B] (X1-[Dab]T[Dab][Dab][Dab][dF]L[Dab][Dab]T; lactam 4-C)
- patients who cannot achieve AUCss,24 h values within the target therapeutic window [1]: ~30%
- HR (95% CI) of PMB treatment duration (day) for 30-day mortality (CRO nosocomial pneumonia [2]): 0.67 (0.53-0.85)
- OR of combination of inhaled polymyxin B for clinical efficacy (CRO nosocomial pneumonia [3]; 51 patients with AUCss,24 h/MIC < 66.9, 95% CI 0.06-0.79, p = 0.022): 0.21
- OR of combination of inhaled polymyxin B for clinical efficacy (CRO nosocomial pneumonia [3]; 54 patients with AUCss,24 h/MIC ≥ 66.9, 95% CI 0.09-2.46, p = 0.365): 0.46
- AOR of dose normalized-AUCss,24 h/MIC for efficacy (CRO nosocomial pneumonia [3]; Covariate-Adjusted Residuals method, 95% CI 0.38-1.01, p = 0.056): 0.62
- clinical success rate (CRO nosocomial pneumonia [3]; IV + IH group, AUCss,24 h/MIC ≥ 66.9 (54 patients)): 90.0%
- clinical success rate (CRO nosocomial pneumonia [3]; IV group, AUCss,24 h/MIC < 66.9 (51 patients)): 35.1%
- clinical success rate (CRO nosocomial pneumonia [3]; IV group, AUCss,24 h/MIC ≥ 66.9 (54 patients)): 82.3%
- favorable clinical outcomes in pneumonia patients with AUCss,24 h > 66.9 (CRO nosocomial pneumonia [3]; MIC mostly 1 mg/L): 85.2%
- optimal cutoff point value of AUCss,24 h/MIC for clinical efficacy (CRO nosocomial pneumonia [3]; ROC curve, largest Youden index, patients receiving combination therapy): 66.9
- clinical success rate (CRO nosocomial pneumonia [3]; all 105 patients (70/105), assessed at end of treatment, combination therapy with another antimicrobial): 66.7%
- clinical success rate (CRO nosocomial pneumonia [3]; intravenous plus inhaled (IV + IH) group, AUCss,24 h/MIC < 66.9 (51 patients)): 71.4%
- Adjusted OR (95% CI) of AUCss,24 h/MIC for clinical efficacy (CRO nosocomial pneumonia [3]; multivariate logistic regression, p = 0.009): 0.97 (0.95–0.99)
- Adjusted OR (95% CI) of daily dose (mg) for clinical efficacy (CRO nosocomial pneumonia [3]; multivariate logistic regression, p = 0.028, listed as PMB): 0.98 (0.97–0.99)
- Adjusted OR (95% CI) of combination of inhaled polymyxin B for clinical efficacy (CRO nosocomial pneumonia [3]; multivariate logistic regression, p = 0.039, aerosol 25 or 50 mg twice daily, listed as PMB): 0.32 (0.11–0.94)
- AUCss, 24h [4, 5]: 62.1 (46.3, 83.2) mg·h/L
- Cmax,ss [4, 5]: 5.4 (4.6, 6.1) μg/mL
- Cmin,ss [4, 5]: 2.1 (1.6, 2.6) μg/mL
- Cmin,ss /MIC [4, 5]: 2.2 (1.6, 2.7)
- AUCss, 24h [4, 6]: 69.4 (58.5, 86.9) mg·h/L
- Cmax,ss [4, 6]: 6.5 (5.8, 7.2) μg/mL
- Cmin,ss [4, 6]: 2.2 (1.9, 2.5) μg/mL
- Cmin,ss /MIC [4, 6]: 2.2 (1.9, 2.5)
- CL (clearance in central compartment) ([4]; bootstrap method estimate): 1.56 L/h
- CLd (clearance between central and peripheral compartment) ([4]; bootstrap method estimate): 2.41 L/h
- Vc (volume distribution in central compartment) ([4]; bootstrap method estimate): 12.5 L
- Vp (volume in peripheral compartment) ([4]; bootstrap method estimate): 29.9 L
- AUCss, 24h [4, 7]: 60.6 (43.5, 66.6) mg·h/L
- Cmax,ss [4, 7]: 5.1 (3.7, 6.9) μg/mL
- Cmin,ss [4, 7]: 1.8 (1.0, 2.5) μg/mL
- Cmin,ss /MIC [4, 7]: 1.7 (0.9, 1.9)
- AUCss, 24h [4, 8]: 78.6 (62.4, 84.2) mg·h/L
- Cmax,ss [4, 8]: 6.8 (5.0, 7.6) μg/mL
- Cmin,ss [4, 8]: 2.4 (1.6, 2.8) μg/mL
- Cmin,ss /MIC [4, 8]: 2.4 (1.4, 3.1)
- CLd (clearance between central and peripheral compartment) [4, 9]: 2.41 L/h
- Vc (volume distribution in central compartment) [4, 9]: 12.5 L
- Vp (volume in peripheral compartment) [4, 9]: 29.9 L
- CL (clearance in central compartment) ([4]; final model estimate, two-compartment population PK, 105 patients, 295 plasma concentrations, IV 100-200 mg loading then 40-100 mg every 12 h): 1.56 L/h
- AUCss, 24h [4, 10]: 67.2 mg·h/L
- Cmax,ss (peak concentration at steady state) [4, 10]: 5900 ng/mL
- Cmin,ss (trough concentration at steady state) [4, 10]: 1900 ng/mL

Reference: PMC10142183, “Optimization of polymyxin B regimens for the treatment of carbapenem-resistant organism nosocomial pneumonia: a real-world prospective study” (Critical Care, 2023)
